Results: patent publication US12404345B2, “Humanized antibodies against iRHOM2” (SCIRHOM GMBH, priority 2021, dated 2025)

Tested on: LPS-induced release of endogenous TNFα from human PBMCs from healthy donors
Assay: ELISA-based TNFα release assay, LPS-induced, PBMCs from healthy donors
Assay type: cell-based
Settings: PBMC, Batimastat 10 μM, LPS 0.01 ng/ml, 2 hours
Procedure: In the following study, ELISA-based TNF& release assays were performed to analyze the inhibitory effects of the antibodies of the invention on LPS-induced release of endogenous TNF& from primary human material obtained from healthy donors using peripheral blood mononuclear cells (PBMCs).
In brief, on day 1, Nunc black MaxiSorp® 96-well plates (Thermo Fisher Scientific, USA) were coated overnight with 100 μl per well of mouse anti-human TNFα capture antibody (provided as part of the DuoSet ELISA kit) at 4 μg/ml TBS at 4° C. On day 2, the capture antibody solution was removed and MaxiSorp® plates were blocked with 300 μl per well of TBS, 1% BSA at room temperature for 3 hours. […] Using an infinite M1000 (Tecan Group, Switzerland) microplate reader, the fluorescence of each well was collected at an excitation wavelength of 435 nm and an emission wavelength of 555 nm.

CNC(=O)[C@H](Cc1ccccc1)NC(=O)[C@H](CC(C)C)[C@H](CSc1cccs1)C(=O)NO [Batimastat]
inhibition at 10 µM: 98.9%
